Laboratory results from US20250380696A1, “METHOD FOR CONTROLLING UNDESIRED PLANTS AND PROMOTING GROWTH OF USEFUL PLANTS” (ISHIHARA SANGYO KAISHA, LTD., priority 2022, published 2025).

Columns and labels:
Type in all cases: in vivo
[1] = test system: Italian ryegrass (Lolium multiflorum); experiment: (1) Herbicidal effect test, pot, spray at 2.3 to 3.0 leaf stage; details: 6th day after spraying
Experimental: Upland soil was put in a 1/1,000,000 hectare pot, and seeds of Italian ryegrass (Lolium multiflorum) were sown. When the Italian ryegrass reached 2.3 to 3.0 leaf stage, a water-based suspension containing tiafenacil as the active ingredient, prepared by a conventional method for preparing a water-based suspension, and an emulsifiable concentrate containing S-metolachlor as the active ingredient (tradename: Dual Gold, manufactured by Syngenta), were diluted with water (in an amount corresponding to 200 liter per hectare) containing 0.5 vol % of an agricultural spreader (tradename: Destiny HC, manufactured by Winfield Solutions, LLC.) and sprayed by a small spray gun (model: W-101-132G, manufactured by ANEST IWATA Corporation). On the 6th day after spraying, the state of growth of the Italian ryegrass was visually observed, and the growth inhibition rate (%) was obtained based on the following standards and the results are shown in Table 1.
Further, the expected value of the growth inhibition rate (%) was calculated in accordance with the following Colby's formula (S. R. Colby, “Weeds”, vol. 15 ([…]), p. 20-22) and the results are also shown in Table 1.
(§1) [formula] • X: growth inhibition rate when treated with α (g/ha) of compound A, • Y: growth inhibition rate when treated with β (g/ha) of compound B, • E: growth inhibition rate expected when treated with α (g/ha) of compound A and β (g/ha) of compound B (expected value).
That is, when the growth inhibition rate of the composition of the present invention is higher than E (expected value of growth inhibition rate) calculated by the above formula, the combination can be regarded as having a synergistic effect.

[2] = test system: Italian ryegrass (Lolium multiflorum); experiment: (6) Herbicidal effect test, pot, spray at 2.5 to 3.0 leaf stage; details: 14th day after spraying
From the text: as §1
Upland soil was put in a 1/1,000,000 hectare pot, and seeds of Italian ryegrass (Lolium multiflorum) were sown. When the Italian ryegrass reached 2.5 to 3.0 leaf stage, a water-based suspension containing tiafenacil as the active ingredient, prepared by a conventional method for preparing a water-based suspension, and water dispersible granules containing pyroxasulfone as the active ingredient (tradename: Sakura, manufactured by Bayer Crop Science) were diluted with water (in an amount corresponding to 200 liter per hectare) containing 0.5 vol % of an agricultural spreader (tradename: Destiny HC, manufactured by Winfield Solutions, LLC.) and sprayed by a small spray gun (model: W-101-132G, manufactured by ANEST IWATA Corporation). On the 14th day after spraying, the state of growth of the Italian ryegrass was visually observed, and the growth inhibition rate (%) was obtained in accordance with the evaluation standards described in the above (1) herbicidal effect test, and the results are shown in Table 6. Further, the expected value of the growth inhibition rate (%) was calculated in accordance with the Colby's formula described in the above (1) herbicidal effect test, and the results are also shown in Table 6.

[3] = test system: wheat (cultivar: Norin 61); experiment: (22) Plant growth promotion effect test (wheat), Italian ryegrass sown; details: 21st day after the sowing, above-ground part
Experimental: Upland soil was put in a 1/1,000,000 hectare pot, and seeds of Italian ryegrass (Lolium multiflorum) were sown. When the Italian ryegrass reached 2.5 to 2.8 leaf stage, a water-based suspension containing tiafenacil as the active ingredient, prepared by a conventional method for preparing a water-based suspension, and a wettable powder containing tri-allate as the active ingredient, prepared by a conventional method for preparing a wettable powder, were diluted with water (in an amount corresponding to 200 liter per hectare) containing 0.5 vol % of an agricultural spreader (tradename: Destiny HC, manufactured by Winfield Solutions, LLC.) and sprayed by a small spray gun (model: W-101-132G, manufactured by ANEST IWATA Corporation). Seeds of wheat (cultivar: Norin 61, manufactured by Asahi Noen Seed Co., Ltd.) were sown in the pot after spraying. On the 21st day after the sowing, the above-ground part of the wheat was reaped, and its weight was measured to obtain the raw weight.

For `CCc1cccc(C)c1N(C(=O)CCl)[C@@H](C)COC` [S-metolachlor], the “Growth inhibition rate (%) Measured value” ([1]; Dose 125 g/ha) was 0%, the “Growth inhibition rate (%) Measured value” ([1]; Dose 250 g/ha) was 1% and the “Growth inhibition rate (%) Measured value” ([1]; Dose 375 g/ha) was 3%. For the same compound, the “Growth inhibition rate (%) Measured value” ([1]; Dose 750 g/ha) was 4%, the “Growth inhibition rate (%) Measured value” ([1]; Dose 1500 g/ha) was 5% and the “Growth inhibition rate (%) Measured value” ([1]; Dose 3000 g/ha) was 5%.
Compound `Cn1nc(C(F)(F)F)c(CS(=O)(=O)C2=NOC(C)(C)C2)c1OC(F)F` [pyroxasulfone] has an inhibition at 15 g/ha ([2]; Lolium multiflorum, Dose 15 g/ha, read-out: Growth inhibition rate (%) Measured value) of 0%, an inhibition at 30 g/ha ([2]; Lolium multiflorum, Dose 30 g/ha, read-out: Growth inhibition rate (%) Measured value) of 5% and an inhibition at 125 g/ha ([2]; Lolium multiflorum, Dose 125 g/ha, read-out: Growth inhibition rate (%) Measured value) of 35%. The inhibition at 250 g/ha ([2]; Lolium multiflorum, Dose 250 g/ha, read-out: Growth inhibition rate (%) Measured value) was 42%, the inhibition at 500 g/ha ([2]; Lolium multiflorum, Dose 500 g/ha, read-out: Growth inhibition rate (%) Measured value) was 67% and the inhibition at 1000 g/ha ([2]; Lolium multiflorum, Dose 1000 g/ha, read-out: Growth inhibition rate (%) Measured value) was 72%.
For `COC(=O)CCNC(=O)C(C)Sc1cc(-n2c(=O)cc(C(F)(F)F)n(C)c2=O)c(F)cc1Cl` (centres unmarked) [tiafenacil], the “Raw weight (g) of wheat” value ([3]; Dose 3 g/ha) was 2.2 g, the “Growth inhibition rate (%) Measured value” ([2]; Dose 12.5 g/ha) was 63% and the “Growth inhibition rate (%) Measured value” ([1]; Dose 12.5 g/ha) was 75%. The “Growth inhibition rate (%) Measured value” ([1]; Dose 25 g/ha) was 83%.
With `CC(C)N(C(=O)SCC(Cl)=C(Cl)Cl)C(C)C` [tri-allate] the “Raw weight (g) of wheat” value ([3]; Dose 200 g/ha) was 2.3 g.
